We go through four molecules from paper PMC7026418, “The kinase polypharmacology landscape of clinical PARP inhibitors” (Scientific Reports, 2020).

Read-outs that look alike come from different tables or passages of the source.

Assay in all cases: biochemical
Set-up in all cases: DiscoveRx KINOMEscan active site-directed competition binding; percent of control kinase bound to immobilised ligand

The target of assay [1] is CSNK1G1 (Homo sapiens, UniProt Q9HCP0).
Assay [2] concerns the target T1, DDR2 (Homo sapiens, UniProt Q16832).
T1 sequence (Q16832 1-855): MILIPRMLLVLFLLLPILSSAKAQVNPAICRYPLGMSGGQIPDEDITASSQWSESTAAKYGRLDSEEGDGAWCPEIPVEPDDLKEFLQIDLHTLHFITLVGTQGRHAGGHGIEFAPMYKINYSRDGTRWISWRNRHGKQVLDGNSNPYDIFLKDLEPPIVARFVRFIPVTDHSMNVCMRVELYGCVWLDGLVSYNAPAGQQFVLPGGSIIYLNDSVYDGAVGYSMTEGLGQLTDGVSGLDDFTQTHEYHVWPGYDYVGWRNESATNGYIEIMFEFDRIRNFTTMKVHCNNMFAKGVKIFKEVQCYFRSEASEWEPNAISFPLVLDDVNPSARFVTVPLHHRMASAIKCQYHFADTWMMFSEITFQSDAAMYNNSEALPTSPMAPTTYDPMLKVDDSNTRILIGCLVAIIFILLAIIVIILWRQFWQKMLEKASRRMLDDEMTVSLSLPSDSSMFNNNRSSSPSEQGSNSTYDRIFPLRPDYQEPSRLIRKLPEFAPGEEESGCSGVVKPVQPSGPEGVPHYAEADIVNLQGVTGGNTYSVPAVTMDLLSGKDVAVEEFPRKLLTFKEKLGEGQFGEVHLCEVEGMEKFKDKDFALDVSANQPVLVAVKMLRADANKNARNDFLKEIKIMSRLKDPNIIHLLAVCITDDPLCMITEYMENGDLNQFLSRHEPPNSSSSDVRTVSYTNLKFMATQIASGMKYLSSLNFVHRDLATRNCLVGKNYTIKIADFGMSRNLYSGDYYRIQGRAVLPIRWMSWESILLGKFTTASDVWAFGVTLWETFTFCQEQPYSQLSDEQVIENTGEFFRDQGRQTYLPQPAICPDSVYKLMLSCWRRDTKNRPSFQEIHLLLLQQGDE

Assay [3] addresses T2, DMPK2 (Homo sapiens, UniProt Q6DT37).
T2 construct: gene CDC42BPG

In assay [4] the target is T3, DYRK2 (Homo sapiens, UniProt Q92630).
T3 sequence (Q92630 1-601): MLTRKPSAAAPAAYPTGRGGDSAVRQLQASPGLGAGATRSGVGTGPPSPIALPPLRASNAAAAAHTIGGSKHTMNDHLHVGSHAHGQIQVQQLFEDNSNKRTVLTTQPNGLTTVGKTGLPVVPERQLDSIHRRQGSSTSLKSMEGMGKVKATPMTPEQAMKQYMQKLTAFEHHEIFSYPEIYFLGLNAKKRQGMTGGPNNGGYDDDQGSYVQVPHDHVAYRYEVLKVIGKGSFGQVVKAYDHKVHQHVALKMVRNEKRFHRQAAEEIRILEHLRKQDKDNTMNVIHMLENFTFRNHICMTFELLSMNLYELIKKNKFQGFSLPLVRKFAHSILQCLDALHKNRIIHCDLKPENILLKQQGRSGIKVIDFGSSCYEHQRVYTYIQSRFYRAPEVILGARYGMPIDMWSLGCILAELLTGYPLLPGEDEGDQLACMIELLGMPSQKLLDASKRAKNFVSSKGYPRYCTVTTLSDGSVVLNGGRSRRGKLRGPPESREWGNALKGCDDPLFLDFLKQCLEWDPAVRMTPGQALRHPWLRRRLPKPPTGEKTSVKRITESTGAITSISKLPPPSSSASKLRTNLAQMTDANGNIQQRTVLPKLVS

Assay [5] addresses EPHA5 (Homo sapiens, UniProt P54756).
The target in assay [6] is T4, FLT3(ITD,D835V) (Homo sapiens, UniProt P36888, D835V/ITD).
T4 sequence (P36888 564-993 D835V): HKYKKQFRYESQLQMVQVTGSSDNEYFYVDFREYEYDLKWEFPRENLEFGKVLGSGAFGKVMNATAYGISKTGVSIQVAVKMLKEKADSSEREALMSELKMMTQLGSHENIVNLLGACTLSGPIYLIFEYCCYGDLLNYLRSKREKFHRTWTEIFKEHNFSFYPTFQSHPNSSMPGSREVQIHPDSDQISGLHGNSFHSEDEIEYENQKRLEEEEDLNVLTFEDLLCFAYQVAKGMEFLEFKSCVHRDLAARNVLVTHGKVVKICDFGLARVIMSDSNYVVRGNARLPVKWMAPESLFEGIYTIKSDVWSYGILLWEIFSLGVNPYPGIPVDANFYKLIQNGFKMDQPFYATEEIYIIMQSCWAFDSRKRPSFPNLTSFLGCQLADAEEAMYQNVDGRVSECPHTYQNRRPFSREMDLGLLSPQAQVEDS

The target in assay [7] is T5, OSR1 (Homo sapiens, UniProt O95747).
T5 construct: gene OXSR1
T5 sequence (O95747 whole entry): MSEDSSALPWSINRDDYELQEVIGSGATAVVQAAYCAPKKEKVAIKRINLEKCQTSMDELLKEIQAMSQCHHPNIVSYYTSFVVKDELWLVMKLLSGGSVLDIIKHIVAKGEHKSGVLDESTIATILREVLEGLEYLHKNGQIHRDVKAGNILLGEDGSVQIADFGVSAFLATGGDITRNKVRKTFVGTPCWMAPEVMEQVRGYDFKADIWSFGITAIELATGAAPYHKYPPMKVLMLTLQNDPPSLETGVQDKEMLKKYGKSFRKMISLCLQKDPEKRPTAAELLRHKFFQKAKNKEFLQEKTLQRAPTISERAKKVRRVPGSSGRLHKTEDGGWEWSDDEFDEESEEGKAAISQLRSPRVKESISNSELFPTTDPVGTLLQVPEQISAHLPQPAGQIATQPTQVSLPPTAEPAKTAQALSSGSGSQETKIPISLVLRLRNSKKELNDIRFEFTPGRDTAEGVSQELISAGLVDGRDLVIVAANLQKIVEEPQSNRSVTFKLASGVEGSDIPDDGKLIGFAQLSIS

The target in assay [8] is T6, PCTK1 (Homo sapiens, UniProt Q00536).
T6 construct: gene CDK16

Assay [9] has as its target T7, PCTK2 (Homo sapiens, UniProt Q00537).
T7 construct: gene CDK17

In assay [10] the target is T8, RSK2(Kin.Dom.2-C-terminal) (Homo sapiens, UniProt P51812).
T8 construct: gene RPS6KA3; Kin.Dom.2-C-terminal
T8 sequence (P51812 whole entry): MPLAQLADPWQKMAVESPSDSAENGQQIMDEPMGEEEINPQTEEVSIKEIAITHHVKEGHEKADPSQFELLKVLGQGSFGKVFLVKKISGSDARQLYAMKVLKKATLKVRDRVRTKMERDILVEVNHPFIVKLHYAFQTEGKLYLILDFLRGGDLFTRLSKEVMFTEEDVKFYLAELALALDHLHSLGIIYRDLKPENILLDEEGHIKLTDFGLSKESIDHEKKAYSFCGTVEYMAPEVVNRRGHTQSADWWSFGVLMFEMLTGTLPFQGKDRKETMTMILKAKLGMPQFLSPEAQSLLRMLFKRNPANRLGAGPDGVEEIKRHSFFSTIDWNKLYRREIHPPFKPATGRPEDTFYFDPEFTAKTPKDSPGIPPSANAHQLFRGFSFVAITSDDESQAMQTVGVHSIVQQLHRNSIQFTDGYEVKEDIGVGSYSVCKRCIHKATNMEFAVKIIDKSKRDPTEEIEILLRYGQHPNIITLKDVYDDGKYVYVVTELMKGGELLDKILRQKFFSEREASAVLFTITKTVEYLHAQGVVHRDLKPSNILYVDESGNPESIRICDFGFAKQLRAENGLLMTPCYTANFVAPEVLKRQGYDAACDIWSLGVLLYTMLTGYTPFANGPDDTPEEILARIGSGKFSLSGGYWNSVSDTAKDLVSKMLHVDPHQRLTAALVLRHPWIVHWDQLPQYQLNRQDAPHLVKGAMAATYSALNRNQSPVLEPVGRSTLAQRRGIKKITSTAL

Setting [11] is: read-out: Niraparib (MK-4827) / %Ctrl @ 10000nM.
The mark [12] stands for this setting: read-out: Talazoparib (BMN 673) / %Ctrl @ 10000nM.
Where [13] appears, read: read-out: Rucaparib / %Ctrl @ 10000nM, binding competition, % of control.
Where [14] appears, read: read-out: Olaparib / %Ctrl @ 10000nM.

T2 sequence (Q6DT37 whole entry): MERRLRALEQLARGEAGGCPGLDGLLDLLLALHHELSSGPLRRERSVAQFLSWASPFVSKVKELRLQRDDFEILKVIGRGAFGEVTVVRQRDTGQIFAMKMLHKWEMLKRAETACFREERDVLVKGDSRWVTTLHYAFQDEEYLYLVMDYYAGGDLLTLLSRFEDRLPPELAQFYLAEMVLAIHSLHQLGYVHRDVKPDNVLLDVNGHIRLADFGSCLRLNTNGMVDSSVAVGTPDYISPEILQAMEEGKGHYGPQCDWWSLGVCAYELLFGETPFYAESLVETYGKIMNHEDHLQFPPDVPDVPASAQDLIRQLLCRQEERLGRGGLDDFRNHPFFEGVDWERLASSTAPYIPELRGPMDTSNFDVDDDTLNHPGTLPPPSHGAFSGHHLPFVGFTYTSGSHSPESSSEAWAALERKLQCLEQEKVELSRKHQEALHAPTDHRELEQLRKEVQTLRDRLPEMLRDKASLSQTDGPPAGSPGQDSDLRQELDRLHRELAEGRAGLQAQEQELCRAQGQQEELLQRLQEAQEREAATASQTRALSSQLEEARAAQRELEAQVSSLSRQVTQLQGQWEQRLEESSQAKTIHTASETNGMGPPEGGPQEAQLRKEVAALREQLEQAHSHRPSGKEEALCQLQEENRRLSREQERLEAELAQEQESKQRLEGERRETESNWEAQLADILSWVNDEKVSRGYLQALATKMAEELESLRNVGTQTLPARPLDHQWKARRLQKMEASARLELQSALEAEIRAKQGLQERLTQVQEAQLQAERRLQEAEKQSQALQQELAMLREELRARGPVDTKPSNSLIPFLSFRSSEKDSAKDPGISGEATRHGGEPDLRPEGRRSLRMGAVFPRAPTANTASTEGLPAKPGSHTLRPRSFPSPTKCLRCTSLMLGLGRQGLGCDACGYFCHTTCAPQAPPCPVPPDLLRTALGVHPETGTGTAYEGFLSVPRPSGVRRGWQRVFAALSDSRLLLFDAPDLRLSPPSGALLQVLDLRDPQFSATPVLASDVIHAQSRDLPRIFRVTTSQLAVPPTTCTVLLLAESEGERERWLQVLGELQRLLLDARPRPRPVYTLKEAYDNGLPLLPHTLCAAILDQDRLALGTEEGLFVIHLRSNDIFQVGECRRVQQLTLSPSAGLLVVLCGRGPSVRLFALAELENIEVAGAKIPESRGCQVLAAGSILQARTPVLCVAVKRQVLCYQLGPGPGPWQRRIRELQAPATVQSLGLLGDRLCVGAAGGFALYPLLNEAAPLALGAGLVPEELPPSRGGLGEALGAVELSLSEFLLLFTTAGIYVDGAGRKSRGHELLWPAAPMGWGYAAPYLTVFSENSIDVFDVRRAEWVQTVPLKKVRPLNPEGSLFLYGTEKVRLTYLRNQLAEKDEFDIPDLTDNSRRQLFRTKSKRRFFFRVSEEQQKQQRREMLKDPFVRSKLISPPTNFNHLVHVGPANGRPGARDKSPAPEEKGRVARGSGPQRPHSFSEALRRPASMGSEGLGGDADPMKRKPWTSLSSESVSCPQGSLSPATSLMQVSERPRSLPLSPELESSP
T7 sequence (Q00537 whole entry): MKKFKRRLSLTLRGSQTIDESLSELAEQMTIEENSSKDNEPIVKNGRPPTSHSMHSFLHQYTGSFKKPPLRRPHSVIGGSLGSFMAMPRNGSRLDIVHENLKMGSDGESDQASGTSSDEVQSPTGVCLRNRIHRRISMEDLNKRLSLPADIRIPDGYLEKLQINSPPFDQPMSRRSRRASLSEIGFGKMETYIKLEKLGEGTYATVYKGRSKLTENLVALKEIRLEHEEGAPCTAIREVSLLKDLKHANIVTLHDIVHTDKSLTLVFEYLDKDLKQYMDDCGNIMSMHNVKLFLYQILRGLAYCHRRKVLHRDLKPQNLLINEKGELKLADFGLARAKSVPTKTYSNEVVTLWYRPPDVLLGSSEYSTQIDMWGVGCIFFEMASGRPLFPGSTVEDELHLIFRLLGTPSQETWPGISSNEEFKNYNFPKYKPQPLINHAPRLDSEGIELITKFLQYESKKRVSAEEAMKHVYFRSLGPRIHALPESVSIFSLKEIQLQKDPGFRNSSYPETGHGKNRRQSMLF
CSNK1G1, sequence (Q9HCP0 whole entry): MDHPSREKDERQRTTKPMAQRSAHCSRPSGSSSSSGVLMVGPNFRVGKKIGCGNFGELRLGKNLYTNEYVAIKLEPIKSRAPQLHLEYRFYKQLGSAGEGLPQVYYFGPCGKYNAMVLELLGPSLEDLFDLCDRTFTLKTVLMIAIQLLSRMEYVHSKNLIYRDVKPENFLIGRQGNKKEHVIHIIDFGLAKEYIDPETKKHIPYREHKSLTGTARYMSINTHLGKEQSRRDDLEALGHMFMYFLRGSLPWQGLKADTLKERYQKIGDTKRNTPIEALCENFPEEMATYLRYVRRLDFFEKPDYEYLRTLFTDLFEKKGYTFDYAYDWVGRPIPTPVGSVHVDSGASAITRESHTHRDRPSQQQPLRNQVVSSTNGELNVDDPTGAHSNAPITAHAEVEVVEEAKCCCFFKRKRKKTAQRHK
EPHA5, sequence (P54756 whole entry): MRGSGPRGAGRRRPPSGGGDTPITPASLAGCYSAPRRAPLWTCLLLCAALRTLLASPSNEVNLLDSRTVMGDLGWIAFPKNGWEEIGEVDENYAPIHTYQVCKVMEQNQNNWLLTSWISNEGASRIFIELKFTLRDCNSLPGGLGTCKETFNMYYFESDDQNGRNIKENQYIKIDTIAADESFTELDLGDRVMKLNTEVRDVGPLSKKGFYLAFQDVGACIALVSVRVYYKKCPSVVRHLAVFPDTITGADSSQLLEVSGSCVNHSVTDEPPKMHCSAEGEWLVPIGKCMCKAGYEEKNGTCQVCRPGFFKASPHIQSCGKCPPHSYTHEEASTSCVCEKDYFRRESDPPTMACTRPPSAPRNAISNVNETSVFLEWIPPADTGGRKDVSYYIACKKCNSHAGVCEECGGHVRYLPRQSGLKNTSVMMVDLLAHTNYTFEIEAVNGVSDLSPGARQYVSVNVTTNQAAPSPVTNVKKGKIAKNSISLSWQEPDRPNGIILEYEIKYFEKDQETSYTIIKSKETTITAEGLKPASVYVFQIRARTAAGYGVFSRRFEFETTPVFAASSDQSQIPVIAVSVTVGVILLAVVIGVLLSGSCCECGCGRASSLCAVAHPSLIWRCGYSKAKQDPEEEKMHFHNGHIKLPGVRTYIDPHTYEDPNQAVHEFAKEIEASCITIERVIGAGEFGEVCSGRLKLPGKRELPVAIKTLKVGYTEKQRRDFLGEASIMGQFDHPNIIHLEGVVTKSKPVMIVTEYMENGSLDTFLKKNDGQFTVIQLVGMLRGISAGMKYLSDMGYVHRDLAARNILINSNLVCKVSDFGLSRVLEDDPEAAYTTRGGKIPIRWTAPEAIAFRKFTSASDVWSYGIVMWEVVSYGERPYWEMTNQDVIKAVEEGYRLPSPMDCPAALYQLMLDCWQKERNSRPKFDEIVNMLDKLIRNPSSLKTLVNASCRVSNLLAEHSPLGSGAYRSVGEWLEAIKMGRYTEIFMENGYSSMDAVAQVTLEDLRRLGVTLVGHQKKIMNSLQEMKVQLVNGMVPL

`NC(=O)c1cccc2cn(-c3ccc([C@@H]4CCCNC4)cc3)nc12` [Niraparib]: the percent of control binding at 10 µM in [1] (setting [11]) is 98%; in assay [2] (setting [11]), 90%; in assay [3] (setting [11]) it was 93%; in [4] (setting [11]) it was 54%; in assay [5] (setting [11]), 94%; in [6] (setting [11]), 36%. The percent of control binding at 10 µM in [7] (setting [11]) came to 98%; in assay [8] (setting [11]), 47%; in assay [9] (setting [11]), 73%; in assay [10] (setting [11]), 100%.
With `Cn1ncnc1[C@H]1c2n[nH]c(=O)c3cc(F)cc(c23)N[C@@H]1c1ccc(F)cc1` [Talazoparib], the percent of control binding at 10 µM was determined as 99% in assay [1] (setting [12]); 100% in [2] (setting [12]); 100% in [3] (setting [12]); 86% in assay [4] (setting [12]); 96% in assay [5] (setting [12]); 100% in [6] (setting [12]). Moreover, the percent of control binding at 10 µM in assay [7] (setting [12]) was 90%; in [8] (setting [12]), 86%; in [9] (setting [12]), 94%; in [10] (setting [12]), 100%.
As for `CNCc1ccc(-c2[nH]c3cc(F)cc4c3c2CCNC4=O)cc1` [Rucaparib], the percent of control binding at 10 µM in assay [1] (setting [13]) was 93%; in assay [2] (setting [13]) it was 89%; in [3] (setting [13]), 99%; in assay [4] (setting [13]), 38%; in assay [5] (setting [13]), 93%; in assay [7] (setting [13]) it was 71%. The percent of control binding at 10 µM in assay [8] (setting [13]) came out at 13%; in [9] (setting [13]), 54%; in assay [10] (setting [13]), 64%. The “Rucaparib / %Ctrl @ 10000nM” value in assay [6] (binding competition, % of control) was found to be 8.1%.
For the molecule `O=C(c1cc(Cc2n[nH]c(=O)c3ccccc23)ccc1F)N1CCN(C(=O)C2CC2)CC1` [Olaparib], the percent of control binding at 10 µM in [1] (setting [14]) came out at 97%; in [2] (setting [14]), 92%; in [3] (setting [14]) it was 100%; in assay [4] (setting [14]) it was 99%; in assay [5] (setting [14]) it was 96%; in [6] (setting [14]), 100%. Also, the percent of control binding at 10 µM in [7] (setting [14]) is 88%; in [8] (setting [14]), 99%; in assay [9] (setting [14]), 100%; in assay [10] (setting [14]), 72%.
